Test results from BindingDB's records for doi:10.1021/jm00067a022 (Syntex Discovery Research, 1993).

Test: Inhibition of lanosterol 14-alpha-demethylase in hamster hepatic microsomes

Compound: CC(=O)N1CCN(c2ccc(OC[C@@H]3CO[C@@](Cn4ccnc4)(c4ccc(Cl)cc4Cl)O3)cc2)CC1 [Nizoral]
- Ki: 25 nM
